Measured values published in PubChem BioAssay (NCI).
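96-well plates; 48 h exposure; 5 concentrations. Endpoints by linear interpolation between flanking doses. Not reached: highest tested concentration assigned. TGI is the concentration that stops growth completely.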

Key:
Assay in all cases: NCI tumour cell line growth inhibition, 48 h
COLO 205 colon = test system: COLO 205 colon
EKVX NSCLC = test system: EKVX NSCLC
HCT-15 colon = test system: HCT-15 colon
HOP-62 NSCLC = test system: HOP-62 NSCLC
HOP-92 NSCLC = test system: HOP-92 NSCLC
HT29 colon = test system: HT29 colon
K-562 leukemia = test system: K-562 leukemia
LOX IMVI melanoma = test system: LOX IMVI melanoma
M14 melanoma = test system: M14 melanoma
MALME-3M melanoma = test system: MALME-3M melanoma
MDA-MB-435 = test system: MDA-MB-435
NCI-H522 lung = test system: NCI-H522 lung
NCI/ADR-RES ovarian = test system: NCI/ADR-RES ovarian
SK-MEL-2 melanoma = test system: SK-MEL-2 melanoma
SNB-19 CNS = test system: SNB-19 CNS
SNB-75 CNS = test system: SNB-75 CNS
SR leukemia = test system: SR leukemia
SW-620 colon = test system: SW-620 colon
UO-31 renal = test system: UO-31 renal

Row | SMILES | TGI (COLO 205 colon) [µM] | TGI (EKVX NSCLC) [µM] | TGI (HCT-15 colon) [µM] | TGI (HOP-62 NSCLC) [µM] | TGI (HOP-92 NSCLC) [µM] | TGI (HT29 colon) [µM] | TGI (K-562 leukemia) [µM] | TGI (LOX IMVI melanoma) [µM] | TGI (M14 melanoma) [µM] | TGI (MALME-3M melanoma) [µM] | TGI (MDA-MB-435) [µM] | TGI (NCI-H522 lung) [µM] | TGI (NCI/ADR-RES ovarian) [µM] | TGI (SK-MEL-2 melanoma) [µM] | TGI (SNB-19 CNS) [µM] | TGI (SNB-75 CNS) [µM] | TGI (SR leukemia) [µM] | TGI (SW-620 colon) [µM] | TGI (UO-31 renal) [µM]
1 | Cc1cccc(N=C/C=C(\Cl)c2ccc3ccccc3c2)c1 | 45.8 | > 100 | 28.2 | 35.4 | > 62.3 | > 62.7 | 40 | 9.27 | 38 | 36.4 | 39.8 | > 78.7 | 47.7 | 68.9 | 33 | > 58.2 | 8.24 | > 66.5 | 34.4
2 | O=C(CCc1ccc(O)c(O)c1)NCCc1cc(O)c(O)c(O)c1 | > 100 | 53 | 32.1 | > 100 | > 100 | 35.4 | 41.4 | 31.7 | 48.1 | > 100 | 31.8 | 40.2 | 40.9 | 50.6 | > 100 | > 100 | > 100 | 35.5 | > 100
3 | COc1ccc(-n2c(Cn3nnc(-c4cccnc4)n3)nn(C3OC(COC(=O)c4ccccc4)C(OC(=O)c4ccccc4)C3OC(=O)c3ccccc3)c2=S)cc1 (configuration not stated) | > 100 | > 100 | > 100 | > 100 | > 100 | > 100 | > 100 | > 100 | > 100 | > 100 | > 100 | > 100 | > 100 | > 100 | > 100 | > 100 | > 100 | > 100 | > 100
4 | COc1ccc2c(c1)-c1nc(=O)n(CCCN(C)C)c3ccc([N+](=O)[O-])c(c13)N2 | 18.4 | 6.45 | 8.55 | 2.39 | 8.53 | 12.2 | 0.235 | 3.24 | 3.69 | 3.28 | 32.2 | 1.93 | 10.4 | 27.6 | 8.58 | 8.51 | 2.44 | > 44.3 | 4.73
5 | O=C1CCN2C(=N1)Sc1ccccc12 | > 100 | > 100 | > 100 | > 100 | > 100 | > 100 | > 100 | > 100 | > 100 | > 100 | > 100 | > 100 | > 100 | > 100 | > 100 | > 100 | > 100 | > 100 | 
6 | COC(=O)c1ccc(C)cc1C1CN=NC12Cc1cc(C)ccc1C2=O (configuration not stated) | 19.1 | > 95.5 | > 100 | > 100 | 84.7 | 15.2 | > 68.1 | 42.9 | 36.9 | > 100 | 6.12 | 26.8 | 47.5 | 45.8 | > 100 | > 68.1 | 32.2 | > 100 | > 85.1
7 | O=C(NCCc1ccccc1)c1cc(/C=C/c2cc(O)ccc2O)ccc1O | 17.6 | 8.24 | 7.42 | 11.9 | 4.35 | > 50 | 7.49 | 17.5 | 15.9 | 5.07 | 25.8 | 4.32 | > 34.2 | 11.8 | 19.6 | 13.7 | 8.58 | > 45.5 | 2.86
8 | CCCCCCCC(CC(=O)NC(CO)C(=O)NC(CO)CC(C)C)OC(=O)CC(CCCCCCC)OC(=O)CC(CCCCCCC)OC1OC(C)C(O)C(OC2OC(C)C(O)C(O)C2O)C1O (configuration not stated) | 22.8 | 41.8 | 34.6 | 35 | 24.8 | 21.8 | 25.7 | 17.7 | 17.5 | 24 | 19.5 | 29.5 | 33.7 | 13.3 | 26.1 | 24.9 | 15.9 | 33.4 | 30.5
9 | C=C1CC(C)(COc2cc(=O)oc3ccccc23)OC1=O (configuration not stated) | 5.81 | 29.4 | 13 | 42.1 | 3.54 | 13.3 | 6.45 | 11.5 | 2.95 | 6.6 | 17.7 | 5.2 | 24 | 11.8 | 35.5 | 21.3 | 11.2 | 11.4 | 24.8
10 | Nc1nc(Br)nc2ncn(C3CC(O)C(CO)O3)c12 (configuration not stated) | > 100 | > 100 | > 100 | > 100 | > 100 | > 100 | > 100 | > 100 | 33.4 | > 100 | > 100 | > 100 | > 63.1 | > 100 | > 100 | > 100 | > 81 | > 100 | > 100
11 | Cc1cc(C)c(S(=O)(=O)N(CCCN)OCCON(CCCN)S(=O)(=O)c2c(C)cc(C)cc2C)c(C)c1 | > 100 | 20.6 | 70.5 | 11.5 | > 21.6 | 40.4 | > 100 | > 100 | > 100 | 3.8 | > 23.6 | 13.6 | 46.6 | 3.24 | 4.37 | 12.6 | > 100 | > 100 | 58.7
12 | CN1C(C)(C)CC(=O)C(Br)C1(C)C (configuration not stated) | > 100 | > 100 | > 100 | > 100 | > 100 | > 100 | > 100 | > 100 | > 100 | > 100 | > 100 | > 100 | > 100 | > 100 | > 100 | > 100 | > 100 | > 100 | > 100
